Data reported in PubChem BioAssay AID328 (DTP/NCI, 2004).
Where “and” joins values, the source holds several entries; their conditions need not be identical. Identical values can stand only once. Toxic doses and inconclusive results are not listed. The calls were made as follows: active = survival T/C of 150% or more; inactive = T/C below 125% in these data.

Tested on: BDF1 mice, P388 leukemia ip, median survival T/C
Assay: NCI In Vivo Anticancer Drug Screen. Data for tumor model P388 Leukemia (intraperitoneal) in B6D2F1 (BDF1) mice
Conditions: endpoint: median survival time, higher = longer survival
In short: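 Compound-treated tumour-bearing mice were compared with vehicle-treated controls. Survival was recorded, and the value is the treated-group measurement divided by the control-group measurement (T/C).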

[1] = dose: 50.0 mg/kg/injection, schedule: Q01DX009 (ip), vehicle: Klucel (hydroxypropylcellulose) (HPC)
[2] = dose: 100.0 mg/kg/injection, schedule: Q01DX009 (ip), vehicle: Klucel (hydroxypropylcellulose) (HPC)
[3] = dose: 100.0 mg/kg/injection, schedule: Q04DX003 (ip), vehicle: Klucel (hydroxypropylcellulose) (HPC)
[4] = dose: 100.0 mg/kg/injection, schedule: Q01DX009 (ip), vehicle: saline with Tween-80
[5] = dose: 200.0 mg/kg/injection, schedule: Q01DX009 (ip), vehicle: saline with Tween-80
[6] = dose: 200.0 mg/kg/injection, schedule: Q01DX009 (ip), vehicle: Klucel (hydroxypropylcellulose) (HPC)
[7] = dose: 200.0 mg/kg/injection, schedule: Q04DX003 (ip), vehicle: Klucel (hydroxypropylcellulose) (HPC)
[8] = dose: 400.0 mg/kg/injection, schedule: Q01DX009 (ip), vehicle: Klucel (hydroxypropylcellulose) (HPC)
[9] = dose: 400.0 mg/kg/injection, schedule: Q04DX003 (ip), vehicle: Klucel (hydroxypropylcellulose) (HPC)
[10] = dose: 50.0 mg/kg/injection, schedule: Q01DX009 (ip), vehicle: saline with Tween-80
[11] = dose: 25.0 mg/kg/injection, schedule: Q01DX009 (ip), vehicle: saline with Tween-80
[12] = dose: 100.0 mg/kg/injection, schedule: Q04DX003 (ip), vehicle: other
[13] = dose: 200.0 mg/kg/injection, schedule: Q04DX003 (ip), vehicle: other
[14] = dose: 400.0 mg/kg/injection, schedule: Q04DX003 (ip), vehicle: other

Measured: T/C

O=C(NN=C1CCCCC1)c1ccccc1
inactive: dose: 25.0 mg/kg/injection, schedule: Q04DX003 (ip), vehicle: Klucel (hydroxypropylcellulose) (HPC) 100 % of control | [1] 100 % of control | dose: 50.0 mg/kg/injection, schedule: Q04DX003 (ip), vehicle: Klucel (hydroxypropylcellulose) (HPC) 100 % of control | dose: 56.25 mg/kg/injection, schedule: Q01DX001 (ip), vehicle: Klucel (hydroxypropylcellulose) (HPC) 100 % of control | [2] 110 % of control | [3] 86 % of control | dose: 112.5 mg/kg/injection, schedule: Q01DX001 (ip), vehicle: Klucel (hydroxypropylcellulose) (HPC) 104 % of control | dose: 150.0 mg/kg/injection, schedule: Q04DX003 (ip), vehicle: Klucel (hydroxypropylcellulose) (HPC) 104 % of control | dose: 225.0 mg/kg/injection, schedule: Q01DX001 (ip), vehicle: Klucel (hydroxypropylcellulose) (HPC) 109 % of control | dose: 225.0 mg/kg/injection, schedule: Q04DX003 (ip), vehicle: Klucel (hydroxypropylcellulose) (HPC) 95 % of control

O=C(O)c1cc(-c2cccc3ccccc23)nc2cc3ccccc3cc12
inactive: [4] 99 % of control | [5] 108 % of control

CCN(CC)c1cc(Cl)c(C=O)cc1Br
inactive: [3] 104 % of control | [6] 100 % of control | [7] 95 % of control | [8] 95 % of control | [9] 100 % of control

C=CC(OC(C)=O)OC(C)=O
inactive: dose: 6.0 mg/kg/injection, schedule: Q01DX009 (ip), vehicle: saline with Tween-80 104 % of control | dose: 8.0 mg/kg/injection, schedule: Q01DX009 (ip), vehicle: saline with Tween-80 115 % of control | dose: 12.0 mg/kg/injection, schedule: Q01DX009 (ip), vehicle: saline with Tween-80 111 % of control | dose: 12.5 mg/kg/injection, schedule: Q04DX003 (ip), vehicle: saline with Tween-80 108 % of control | dose: 18.0 mg/kg/injection, schedule: Q01DX009 (ip), vehicle: saline with Tween-80 100 % of control | dose: 25.0 mg/kg/injection, schedule: Q04DX003 (ip), vehicle: saline with Tween-80 117 % of control

CCCCOCN(COCCCC)C(C)Cc1ccccc1 (stereo not given)
inactive: [10] 122 % of control

O=C(O)CNC(=O)COc1ccc(Cl)c(Cl)c1
inactive: [10] 94 % of control | [4] 92 % of control | [5] 124 % of control

CC(C)(C)OC(=O)NC(CCC(=O)O)(Cc1ccccc1)C(=O)NC(CCC(=O)OCc1ccccc1)C(=O)OCc1ccccc1 (stereo not given)
inactive: dose: 100.0 mg/kg/injection, schedule: Q01DX005 (ip), vehicle: saline with Tween-80 86 % of control | dose: 200.0 mg/kg/injection, schedule: Q01DX005 (ip), vehicle: saline with Tween-80 86 % of control

O=C(O)O.[Ce]
inactive: [10] 107 % of control | [4] 107 % of control

O=C(CC(=O)Oc1ccc(Cl)cc1Cl)Oc1ccc(Cl)cc1Cl
inactive: [4] 100 % of control | [5] 100 % of control | dose: 400.0 mg/kg/injection, schedule: Q01DX009 (ip), vehicle: saline with Tween-80 100 % of control

Cc1cccn2c(C)nnc12
inactive: [11] 110 % of control | [10] 101 % of control | [4] 99 % of control

CCOC(=O)C1(c2ccccc2)C(=O)Oc2ccccc21 (stereo not given)
inactive: [11] 100 % of control | [10] 98 % of control | [4] 108 % of control | [5] 122 % of control

CC12CCC3C(CCC4CC5(CCC43C)CO5)C1CCC2=O (stereo not given)
inactive: dose: 100.0 mg/kg/injection, schedule: Q04DX003 (ip), vehicle: saline with Tween-80 103 % of control | dose: 200.0 mg/kg/injection, schedule: Q04DX003 (ip), vehicle: saline with Tween-80 103 % of control | dose: 400.0 mg/kg/injection, schedule: Q04DX003 (ip), vehicle: saline with Tween-80 98 % of control

CC(=O)c1ccccc1OCC(O)CN1CCN(c2ccccc2Cl)CC1 (stereo not given)
inactive: dose: 37.5 mg/kg/injection, schedule: Q04DX003 (ip), vehicle: saline with Tween-80 100 % of control | dose: 75.0 mg/kg/injection, schedule: Q04DX003 (ip), vehicle: saline with Tween-80 109 % of control | dose: 150.0 mg/kg/injection, schedule: Q04DX003 (ip), vehicle: saline with Tween-80 90 % of control

NC(=O)c1nc(C(F)(F)F)[nH]c1C(N)=O
inactive: dose: 25.0 mg/kg/injection, schedule: Q01DX009 (ip), vehicle: water 107 % of control | dose: 50.0 mg/kg/injection, schedule: Q01DX009 (ip), vehicle: water 105 % of control and 107 % of control | dose: 50.0 mg/kg/injection, schedule: Q04DX003 (ip), vehicle: water 102 % of control | dose: 100.0 mg/kg/injection, schedule: Q01DX009 (ip), vehicle: water 108 % of control and 118 % of control | dose: 100.0 mg/kg/injection, schedule: Q04DX003 (ip), vehicle: water 102 % of control | dose: 200.0 mg/kg/injection, schedule: Q01DX009 (ip), vehicle: water 107 % of control and 118 % of control | dose: 200.0 mg/kg/injection, schedule: Q04DX003 (ip), vehicle: water 109 % of control | dose: 300.0 mg/kg/injection, schedule: Q01DX009 (ip), vehicle: water 96 % of control | dose: 400.0 mg/kg/injection, schedule: Q01DX009 (ip), vehicle: water 118 % of control | dose: 400.0 mg/kg/injection, schedule: Q04DX003 (ip), vehicle: water 102 % of control

CCOc1ccc(S(=O)(=O)O)c2cccnc12
inactive: dose: 100.0 mg/kg/injection, schedule: Q04DX003 (ip), vehicle: saline 105 % of control | dose: 200.0 mg/kg/injection, schedule: Q04DX003 (ip), vehicle: saline 105 % of control | dose: 400.0 mg/kg/injection, schedule: Q04DX003 (ip), vehicle: saline 105 % of control

Cc1cccc(C(=O)CC(O)(C(F)(F)F)C(F)(F)F)c1
inactive: dose: 100.0 mg/kg/injection, schedule: Q01DX001 (ip), vehicle: saline with Tween-80 104 % of control | dose: 200.0 mg/kg/injection, schedule: Q01DX001 (ip), vehicle: saline with Tween-80 100 % of control | dose: 400.0 mg/kg/injection, schedule: Q01DX001 (ip), vehicle: saline with Tween-80 109 % of control

COc1ccc(Cc2ccc(O)cc2)cc1
inactive: [12] 100 % of control | [13] 119 % of control | [14] 119 % of control

CN(C1=NS(=O)(=O)N=C(N(C)c2ccccc2)O1)c1ccccc1
inactive: dose: 25.0 mg/kg/injection, schedule: Q01DX009 (ip), vehicle: Klucel (hydroxypropylcellulose) (HPC) 122 % of control | [1] 102 % of control | [10] 89 % of control | [2] 115 % of control | [4] 99 % of control | [6] 105 % of control

COc1ccc(/C=C/NC=O)cc1
inactive: dose: 50.0 mg/kg/injection, schedule: Q04DX003 (ip), vehicle: other 105 % of control | [12] 112 % of control | [13] 112 % of control | [14] 91 % of control

Cc1c(Cl)c(Cl)c(NS(=O)(=O)c2ccccc2)c(NS(=O)(=O)c2ccccc2)c1Cl
inactive: [2] 100 % of control | [3] 90 % of control | [6] 90 % of control | [7] 104 % of control | [8] 95 % of control | [9] 100 % of control

C/C(=N/NC(=O)c1ccccc1)c1ccc(Cl)cc1Cl
inactive: dose: 3.12 mg/kg/injection, schedule: Q04DX003 (ip), vehicle: Klucel (hydroxypropylcellulose) (HPC) 110 % of control | dose: 6.25 mg/kg/injection, schedule: Q04DX003 (ip), vehicle: Klucel (hydroxypropylcellulose) (HPC) 105 % of control | dose: 12.5 mg/kg/injection, schedule: Q04DX003 (ip), vehicle: Klucel (hydroxypropylcellulose) (HPC) 100 % of control | dose: 18.0 mg/kg/injection, schedule: Q01DX009 (ip), vehicle: Klucel (hydroxypropylcellulose) (HPC) 100 % of control | dose: 18.0 mg/kg/injection, schedule: Q04DX003 (ip), vehicle: Klucel (hydroxypropylcellulose) (HPC) 100 % of control | dose: 28.0 mg/kg/injection, schedule: Q01DX009 (ip), vehicle: Klucel (hydroxypropylcellulose) (HPC) 104 % of control | dose: 28.0 mg/kg/injection, schedule: Q04DX003 (ip), vehicle: Klucel (hydroxypropylcellulose) (HPC) 100 % of control | dose: 40.0 mg/kg/injection, schedule: Q04DX003 (ip), vehicle: Klucel (hydroxypropylcellulose) (HPC) 104 % of control | dose: 60.0 mg/kg/injection, schedule: Q04DX003 (ip), vehicle: Klucel (hydroxypropylcellulose) (HPC) 110 % of control | dose: 90.0 mg/kg/injection, schedule: Q04DX003 (ip), vehicle: Klucel (hydroxypropylcellulose) (HPC) 110 % of control

O=Cc1[nH]c(=S)[nH]c(=O)c1Cc1ccccc1Cl
inactive: [3] 100 % of control | [7] 100 % of control | [9] 100 % of control
